Results: patent US20250205344A1, “2,4-DIOXOTETRAHYDROPYRIMIDINYL DERATIVES AS DEGRONS IN PROTACS” (GLAXOSMITHKLINE INTELLECTUAL PROPERTY DEVELOPMENT LIMITED, priority 2022, published 2025)
Where a name gives a salt, the structure may show the parent alone.

Experiments:
[1] = target: T1, Full length Cereblon protein (6His tev Cereblon/6His tev DDB1ΔBPB) (Homo sapiens, UniProt Q96SW2); assay: Cereblon Binding Assay (TR-FRET); settings: 5 nM protein, 50 nM Alexa647-lenalidomide ligand, read-out: Mean pIC50 (converted)
T1 construct: Full length Cereblon protein (6His tev Cereblon/6His tev DDB1ΔBPB) was expressed and purified from E. coli; made in house; host or cells: E. coli
T1 sequence (Q96SW2 whole entry, stated change not applied): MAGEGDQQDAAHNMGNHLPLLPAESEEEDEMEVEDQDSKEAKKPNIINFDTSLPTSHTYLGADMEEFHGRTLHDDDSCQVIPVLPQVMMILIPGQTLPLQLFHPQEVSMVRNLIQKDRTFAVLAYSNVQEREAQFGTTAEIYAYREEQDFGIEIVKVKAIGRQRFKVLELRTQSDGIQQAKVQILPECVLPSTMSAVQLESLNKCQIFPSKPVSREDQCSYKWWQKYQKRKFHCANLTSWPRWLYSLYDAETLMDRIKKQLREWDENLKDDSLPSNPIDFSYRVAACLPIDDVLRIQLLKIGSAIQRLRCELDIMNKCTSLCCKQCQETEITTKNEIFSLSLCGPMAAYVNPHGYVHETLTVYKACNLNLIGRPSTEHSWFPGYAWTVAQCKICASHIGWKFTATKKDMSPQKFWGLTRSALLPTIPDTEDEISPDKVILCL
Method: Full length Cereblon protein (6His tev Cereblon/6His tev DDB1ΔBPB) was expressed and purified from E. coli to monitor compound binding. […] A Thermo Scientific Multidrop Combi was used to dispense 5 μL of 10 nM protein in assay buffer of 50 mM
HEPES, 150 mM NaCl, 5% glycerol, 1 mM DTT and 1 mM CHAPS, pH 7.4, in the presence of 100 nM fluorescent ligand (Final assay concentrations of 5 nM protein and 50 nM ligand). After equilibrating for 15 min in the dark at room temperature a 5 μL addition was made of 2 nM europium chelate labelled anti-6His antibody (Perkin Elmer, W1024, AD0111) in assay buffer (1 nM FAC). […] TR-FRET ratio data was normalised to high (DMSO) and low (reaction in the absence of protein) controls and pIC50 values determined for each of the compounds tested by fitting the fluorescence ratio data to a four parameter model:
[formula] • where ‘a’ is the minimum, ‘b’ is the maximum, ‘c’ is the pIC50 and ‘d’ is the Hill slope.

Androgen Receptor = target: T2, Androgen Receptor (Homo sapiens, UniProt P10275, T878A); assay: Androgen Receptor Degradation Assay (Nano-Glo HiBiT); format: cell-based; settings: LNCaP, 18 h, HiBiT-tagged AR in human LnCaP cells, read-out: mean asymptote max
T2 construct: the AR gene was modified, using CRISPR/Cas9 editing, so the expressed AR protein included an 11 amino acid HiBiT tag; endogenous in cells; host or cells: clonal LnCaP-derived line, AR gene edited by CRISPR/Cas9
T2 sequence (P10275 whole entry T878A): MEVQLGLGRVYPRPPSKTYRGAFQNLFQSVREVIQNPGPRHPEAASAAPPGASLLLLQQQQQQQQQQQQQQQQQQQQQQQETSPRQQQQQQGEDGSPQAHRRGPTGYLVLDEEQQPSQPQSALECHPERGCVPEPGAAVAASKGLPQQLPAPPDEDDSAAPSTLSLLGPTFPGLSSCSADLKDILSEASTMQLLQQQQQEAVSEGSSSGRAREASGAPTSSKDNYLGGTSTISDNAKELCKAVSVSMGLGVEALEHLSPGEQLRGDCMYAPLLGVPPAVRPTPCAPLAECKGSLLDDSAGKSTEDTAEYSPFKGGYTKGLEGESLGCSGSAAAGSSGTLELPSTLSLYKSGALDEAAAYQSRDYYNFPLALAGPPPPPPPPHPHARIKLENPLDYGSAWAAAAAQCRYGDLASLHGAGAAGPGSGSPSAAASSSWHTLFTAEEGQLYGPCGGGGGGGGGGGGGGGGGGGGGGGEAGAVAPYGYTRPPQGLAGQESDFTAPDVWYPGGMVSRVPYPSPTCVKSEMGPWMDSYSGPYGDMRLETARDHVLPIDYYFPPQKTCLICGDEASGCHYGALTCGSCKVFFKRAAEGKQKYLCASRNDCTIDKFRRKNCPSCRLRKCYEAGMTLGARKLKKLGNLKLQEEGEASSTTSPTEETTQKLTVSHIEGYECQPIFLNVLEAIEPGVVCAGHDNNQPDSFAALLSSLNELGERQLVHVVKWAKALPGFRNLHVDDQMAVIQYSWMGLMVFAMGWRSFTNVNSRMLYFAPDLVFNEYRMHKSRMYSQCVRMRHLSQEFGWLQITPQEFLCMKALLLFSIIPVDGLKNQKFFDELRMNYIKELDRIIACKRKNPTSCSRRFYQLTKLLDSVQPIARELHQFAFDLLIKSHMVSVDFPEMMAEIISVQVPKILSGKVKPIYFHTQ
T2 sequence (Q96SW2 whole entry partner): as the sequence (Q96SW2 whole entry, stated change not applied) above
T2 sequence (Q16531 whole entry partner): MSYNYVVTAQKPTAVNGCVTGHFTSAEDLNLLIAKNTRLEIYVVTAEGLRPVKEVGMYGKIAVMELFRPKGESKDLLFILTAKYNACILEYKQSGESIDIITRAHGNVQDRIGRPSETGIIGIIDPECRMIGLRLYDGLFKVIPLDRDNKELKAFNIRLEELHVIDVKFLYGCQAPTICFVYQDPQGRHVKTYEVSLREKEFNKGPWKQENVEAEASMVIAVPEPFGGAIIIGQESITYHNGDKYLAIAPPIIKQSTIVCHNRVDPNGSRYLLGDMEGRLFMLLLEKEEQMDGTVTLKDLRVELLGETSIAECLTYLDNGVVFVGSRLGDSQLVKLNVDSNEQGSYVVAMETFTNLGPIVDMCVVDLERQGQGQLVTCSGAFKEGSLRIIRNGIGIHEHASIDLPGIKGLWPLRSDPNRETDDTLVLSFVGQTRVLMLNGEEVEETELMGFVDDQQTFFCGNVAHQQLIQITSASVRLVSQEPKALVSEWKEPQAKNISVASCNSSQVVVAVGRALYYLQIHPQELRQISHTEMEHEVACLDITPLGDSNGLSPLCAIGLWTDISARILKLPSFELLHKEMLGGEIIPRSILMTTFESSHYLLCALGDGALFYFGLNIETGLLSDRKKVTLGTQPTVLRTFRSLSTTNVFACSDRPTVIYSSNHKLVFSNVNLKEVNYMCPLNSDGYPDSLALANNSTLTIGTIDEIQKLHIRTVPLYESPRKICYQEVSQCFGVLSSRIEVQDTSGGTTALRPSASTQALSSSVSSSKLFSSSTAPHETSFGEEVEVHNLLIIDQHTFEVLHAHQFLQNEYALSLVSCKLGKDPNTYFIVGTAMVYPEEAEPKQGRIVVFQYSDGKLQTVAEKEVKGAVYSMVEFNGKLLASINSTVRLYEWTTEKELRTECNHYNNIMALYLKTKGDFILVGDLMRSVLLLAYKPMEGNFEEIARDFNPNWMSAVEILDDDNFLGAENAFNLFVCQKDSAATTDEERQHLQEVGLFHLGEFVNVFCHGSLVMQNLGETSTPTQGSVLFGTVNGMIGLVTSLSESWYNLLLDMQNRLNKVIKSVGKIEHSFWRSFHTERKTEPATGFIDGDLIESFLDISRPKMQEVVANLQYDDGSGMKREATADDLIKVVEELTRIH
Summary of the method: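 LnCaP cells with CRISPR-knocked-in N-terminal HiBiT-tagged AR (10,000/well) treated 18 h at 37 °C with PROTACs over 11 threefold concentrations; lytic HiBiT luminescence normalised to DMSO (0%) and cell-free (100%) controls. Relative DC50 = 4-parameter fit inflection; absolute DC50 = 50% degradation interpolation; Dmax = maximum observed degradation.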

[2] = target: T3, Androgen Receptor dual T878A/L702H mutant protein (Homo sapiens, UniProt P10275, L702H/T878A); assay: Dual Mutant (T878A/L702H) Androgen Receptor Degradation Assay (HTRF); format: cell-based; settings: MDA-PCa-2b, 18 h, human MDA PCa 2b cells, read-out: mean asymptote max
T3 construct: Androgen Receptor dual T878A/L702H mutant protein in human MDA PCa 2b (ATCC, #CRL-2422) cells; host or cells: MDA PCa 2b
T3 sequence (P10275 1-920 L702H/T878A): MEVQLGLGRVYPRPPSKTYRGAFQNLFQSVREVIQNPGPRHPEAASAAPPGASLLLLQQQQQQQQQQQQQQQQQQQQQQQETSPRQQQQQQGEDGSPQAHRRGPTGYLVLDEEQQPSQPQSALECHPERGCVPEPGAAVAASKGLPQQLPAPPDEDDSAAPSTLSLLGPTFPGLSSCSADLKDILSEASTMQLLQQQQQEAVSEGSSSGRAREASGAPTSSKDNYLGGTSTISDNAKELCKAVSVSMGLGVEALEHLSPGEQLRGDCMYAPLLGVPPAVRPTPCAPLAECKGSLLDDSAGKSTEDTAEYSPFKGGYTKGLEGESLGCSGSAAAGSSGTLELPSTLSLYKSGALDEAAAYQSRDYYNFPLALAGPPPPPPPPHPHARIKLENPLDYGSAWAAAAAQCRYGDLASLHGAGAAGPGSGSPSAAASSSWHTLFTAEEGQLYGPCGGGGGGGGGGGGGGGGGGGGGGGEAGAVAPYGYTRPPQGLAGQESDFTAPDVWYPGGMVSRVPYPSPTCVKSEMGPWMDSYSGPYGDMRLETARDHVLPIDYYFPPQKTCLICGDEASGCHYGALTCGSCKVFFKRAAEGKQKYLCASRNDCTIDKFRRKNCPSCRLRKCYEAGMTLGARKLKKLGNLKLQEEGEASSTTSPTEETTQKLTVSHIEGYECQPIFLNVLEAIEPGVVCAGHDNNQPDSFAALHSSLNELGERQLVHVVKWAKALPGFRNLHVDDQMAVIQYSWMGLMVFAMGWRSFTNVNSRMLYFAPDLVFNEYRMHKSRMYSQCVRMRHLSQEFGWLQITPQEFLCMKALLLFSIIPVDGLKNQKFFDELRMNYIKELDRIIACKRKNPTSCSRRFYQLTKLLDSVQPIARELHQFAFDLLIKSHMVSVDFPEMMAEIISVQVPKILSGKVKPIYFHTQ
Method: Degradation of Androgen Receptor dual T878A/L702H mutant protein in human MDA PCa 2b (ATCC, #CRL-2422) cells treated with PROTACs was quantified using the HTRF Human Androgen Receptor Detection Kit (PerkinElmer, #64ANDRPEH) in 384 well assay plate format. 10 mM DMSO(Sigma-Aldrich, #472301) stock solutions of PROTACs were prepared and diluted across an 11 concentration, 3-fold increment range, and 25 nL dispensed into a white opaque bottomed 384 well assay plate (Thermofisher, #164610) using an acoustic ECHO dispenser (Labcyte). Cells were cultured in growth medium (BRFF-HPC-1 (Athena ES, #0403) supplemented with 20% FBS (Gibco, #10099-141), penicillin 50 U/mL and streptomycin 50 ug/mL (Gibco, #15140-122)) in collagen I or poly-D-lysine coated T175 flasks (Corning, #356487 or #356539, respectively). For the assay, cells were harvested from the flask, centrifuged at 200 g for 5 min and then resuspended in the growth medium. 25 μl of cell suspension containing 10,000 cells was dispensed into each well of the assay plate containing the test compounds, which was then incubated for 18 h at 37° C./5% CO2. Control wells were included on each assay plate, with assay medium without cells being the no AR remaining 100% effect control, and cells treated with DMSO vehicle only, without PROTAC, the 0% effect control. After 18 h incubation 8 μl of supplemented lysis buffer from HTRF kit was added to each well and the plate shaken at 500 rpm for 1 h at room temperature. 8 μl of antibody mix in Detection buffer from HTRF kit was added to each well and the plate was incubated for 2 h in dark at room temperature. The fluorescence was measured at both 620 nm and 665 nm using an excitation wavelength of 337 nm with a PHERAstar microplate reader (BMG Labtech) and the % AR protein remaining in each well was calculated by normalising the HTRF ratio (665 nm signal/620 nm signal) value to the control wells mentioned above. Parameters corresponding to the potency and efficacy estimates of the PROTACs were obtained from these normalised values using curve fitting software (IDBS ActivityBase). These included the DC50 and the Dmax estimates. Two versions of the DC50, called relative DC50 and absolute DC50, were typically generated. These are the inflection point of a fitted 4 parameter sigmoidal response curve and the interpolated concentration of PROTAC corresponding to 50% of the protein being degraded, respectively. The Dmax parameter was the maximum experimentally observed degradation and the asymptote max parameter the fitted response curve asymptote maximum.

SMILES | IC50 [1] [nM] | Dmax (Androgen Receptor) [%] | Dmax [2] [%]
N#Cc1ccc(O[C@H]2CC[C@H](NC(=O)c3ccc(N4CCC(CN5CCC(n6ccc7c(N8CCC(=O)NC8=O)cccc76)C(F)(F)C5)CC4)nn3)CC2)cc1Cl (single isomer, unassigned) [EAR162, N-((1r,4r)-4-(3-Chloro-4-cyanophenoxy)cyclohexyl)-6-(4-((4-(4-(2,4-dioxotetrahydropyrimidin-1(2H)-yl)-1H-indol-1-yl)-3,3-difluoropiperidin-1-yl)methyl)piperidin-1-yl)pyridazine-3-carboxamide] | ≤ 1000 | ≥ 50 | –
CC1(C)[C@H](NC(=O)c2cnc(N3CCC(C(=O)N4CCC(n5ccc6c(N7CCC(=O)NC7=O)cccc65)CC4)CC3)nc2)C(C)(C)[C@H]1Oc1ccc(C#N)c(Cl)c1 [AR67, N-((1r,3r)-3-(3-Chloro-4-cyanophenoxy)-2,2,4,4-tetramethylcyclobutyl)-2-(4-(4-(4-(2,4-dioxotetrahydropyrimidin-1(2H)-yl)-1H-indol-1-yl)piperidine-1-carbonyl)piperidin-1-yl)pyrimidine-5-carboxamide] | – | ≥ 50 | ≥ 55
N#Cc1ccc(O[C@H]2CC[C@H](NC(=O)c3ccc(N4CCCC(CN5CCC(n6ccc7c(N8CCC(=O)NC8=O)cccc76)CC5)C4)nn3)CC2)cc1Cl (mixture of isomers) [EAR73, rac-N-((1r,4r)-4-(3-Chloro-4-cyanophenoxy)cyclohexyl)-6-(3-((4-(4-(2,4-dioxotetrahydropyrimidin-1(2H)-yl)-1H-indol-1-yl)piperidin-1-yl)methyl)piperidin-1-yl)pyridazine-3-carboxamide] | ≤ 1000 | ≥ 50 | –
CC1(C)[C@H](NC(=O)c2ccc(N3CCC(CN4CCC(n5ncc6c(N7CCC(=O)NC7=O)cccc65)CC4)CC3)nc2)C(C)(C)[C@H]1Oc1ccc(C#N)c2ncccc12 [AR261, N-((1r,3r)-3-((8-Cyanoquinolin-5-yl)oxy)-2,2,4,4-tetramethylcyclobutyl)-6-(4-((4-(4-(2,4-dioxotetrahydropyrimidin-1(2H)-yl)-1H-indazol-1-yl)piperidin-1-yl)methyl)piperidin-1-yl)nicotinamide hydrochloride] | – | – | ≥ 55
CC1(C)[C@H](NC(=O)c2ccc(N3CCC(CN4CCC(n5ncc6c(N7CCC(=O)NC7=O)cccc65)CC4)CC3)nn2)C(C)(C)[C@H]1Oc1cnc(C#N)c(Cl)c1 [EAR249, N-((1r,3r)-3-((5-Chloro-6-cyanopyridin-3-yl)oxy)-2,2,4,4-tetramethylcyclobutyl)-6-(4-((4-(4-(2,4-dioxotetrahydropyrimidin-1(2H)-yl)-1H-indazol-1-yl)piperidin-1-yl)methyl)piperidin-1-yl)pyridazine-3-carboxamide hydrochloride] | ≤ 1000 | ≥ 50 | –
O=C1CCN(c2cncc3c2cnn3C2CCNCC2)C(=O)N1 [ECB8, 1-(1-(Piperidin-4-yl)-1H-pyrazolo[3,4-c]pyridin-4-yl)dihydropyrimidine-2,4(1H,3H)-dione] | 251 | – | –
O=C1CCN(c2cc(F)cc3c2ccn3C2CCNCC2)C(=O)N1 [ECB44, 1-(6-Fluoro-1-(piperidin-4-yl)-1H-indol-4-yl)dihydropyrimidine-2,4(1H,3H)-dione] | 33.1 | – | –
O=C1CCN(c2nccc3c2ccn3C2CCNCC2)C(=O)N1 [ECB25, 1-(1-(piperidin-4-yl)-1H-pyrrolo[3,2-c]pyridin-4-yl)dihydropyrimidine-2,4(1H,3H)-dione] | 229 | – | –
O=C1CCN(c2ccnc3c2cnn3C2CCNCC2)C(=O)N1 [ECB19, 1-(1-(piperidin-4-yl)-1H-pyrazolo[3,4-b]pyridin-4-yl)dihydropyrimidine-2,4(1H,3H)-dione] | 380 | – | –
O=C1CCN(c2cncc3c2ccn3C2CCNCC2)C(=O)N1 [ECB6, 1-(1-(piperidin-4-yl)-1H-pyrrolo[2,3-c]pyridin-4-yl)dihydropyrimidine-2,4(1H,3H)-dione] | 25.1 | – | –
CC(C)n1ccc2c(N3CCC(=O)NC3=O)cc(C(=O)N3CCNCC3)cc21 [ECB11, 1-(1-isopropyl-6-(piperazine-1-carbonyl)-1H-indol-4-yl)dihydropyrimidine-2,4(1H,3H)-dione] | 2.51 | – | –
O=C1CCN(c2cccc3c2ccn3C[C@]2(F)CCCNC2)C(=O)N1 [ECB29, (S)-1-(1-((3-fluoropiperidin-3-yl)methyl)-1H-indol-4-yl)dihydropyrimidine-2,4(1H,3H)-dione] | 120 | – | –
COCCn1ccc2c(N3CCC(=O)NC3=O)cccc21 [ECB48, 1-(1-(2-Methoxyethyl)-1H-indol-4-yl)dihydropyrimidine-2,4(1H,3H)-dione] | 35.5 | – | –
Cn1ncc2c(N3CCC(=O)NC3=O)cccc21 [ECB46, 1-(1-Methyl-1H-indazol-4-yl)dihydropyrimidine-2,4(1H,3H)-dione] | 309 | – | –
CCn1ccc2c(N3CCC(=O)NC3=O)cccc21 [ECB50, 1-(1-Ethyl-1H-indol-4-yl)dihydropyrimidine-2,4(1H,3H)-dione] | 24 | – | –
Cc1ccc(N2CCC(=O)NC2=O)c2ccn(C)c12 [ECB49, 1-(1,7-Dimethyl-1H-indol-4-yl)dihydropyrimidine-2,4(1H,3H)-dione] | 20 | – | –
